Data as given in patent publication US4007276A, “Triazolo isoindole derivatives” (Gruppo Lepetit, S.p.A., priority 1973, dated 1977).
≈ marks a conversion by molar mass, not a printed value.

Columns and labels:
[1] = tested on: female Sprague-Dawley rats; assay: anti-fertility activity in pregnant rats; assay type: in vivo, rat (Sprague-Dawley)
Procedure: Representative experiments for assessing anti-fertility activity are carried out with female Sprague-Dawley rats weighing 200-230 g. They were mated with proven fertile males. The presence of sperm in the vagina of these animals is evidence of mating and is also considered as being day one of pregnancy. Pregnancy is confirmed at the time of autopsy by the presence of fetuses or implantation sites in the uterus. Even when animals abort the fetuses, implantation scars remain as evidence that the animal had been pregnant.
[…] These animals were autopsied on day 16 of pregnancy and the uteri were examined for evidence of pregnancy and termination of pregnancy such as implantation sites, live or resorbing fetuses and hemorrage as well as abnormalities of the uterus, placenta or fetuses. A compound is considered to be active if there is a reduction of live fetuses in at least 60% of the treated animals and the presence of implantation sites proves the animals to have been pregnant.

[2] = tested on: female Syrian golden hamsters; assay: anti-fertility activity in pregnant hamsters; assay type: in vivo, hamster (Syrian golden); details: Mesocricetus auratus, sc, 5 mg/kg s.c., day 4 through day 8, autopsy day 14 of pregnancy, read-out: treated animals in which the number of live fetuses was either eliminated or severely reduced
Procedure: The anti-fertility activity of these compounds in rats was also confirmed in other species including mice, hamsters, rabbits, dogs, monkeys and baboons. With hamsters, the same criteria and conditions are followed as for testing in rats, with the exception that the animals (female Syrian golden hamsters weighing 100 to 130 g) are treated on day 4 through day 8 with 5 mg/kg s.c. of the test compound and are autopsied on day 14 of pregnancy.

[3] = tested on: pain threshold of the rats; assay: analgesic activity, Randall and Selitto procedure, pain threshold; assay type: in vivo, rat; details: 50 mg/kg i.p.
Procedure: The analgesic activity of representative compounds as hereinbefore described was assessed in rats by following essentially the procedure described by L. O. Randall and J. J. Selitto, Arch. Int. Pharmacodyn., 111, 409 (1957).

baboons = assay: anti-fertility test in baboons; assay type: in vivo, baboon
conditioned rats = assay: secondary conditioned avoidance response test (anti-anxiety); assay type: in vivo, rat
Procedure: The CNS depressant properties of compounds hereinbefore described were investigated according to the Irwin method and in particular the anti-anxiety effect was evaluated on the basis of the secondary conditioned avoidance response test. A specific anti-anxiety effect was evidenced by administering to conditioned rats doses of 15-60 mg/kg i.p. of representative said compounds of the invention.
Following Table II indicates the ratio of the rats which are deconditioned after administration of predetermined amounts of said representative compounds: […]

[4] = toxicity, LD50 i.p. in mice; details: mouse, in vivo, ip
[5] = tested on: Mycobacterium tubercolosis H37 Rv; assay: minimal inhibitory concentration, bacterial growth; assay type: cell-based; details: H37RV, read-out: M.I.C. (minimal inhibitory concentration)
Procedure: In evaluating the antimicrobial utility of representative compounds as hereinbefore described, the minimal concentration of substance inhibiting bacterial growth (M.I.C.=minimal inhibitory concentration) was determined.

[6] = tested on: carrageenin induced edema; assay: carrageenin induced edema of the rat hind paw (anti-inflammatory); assay type: in vivo; details: rats
Procedure: The anti-inflammatory activity of some representative compounds of formula I as hereinbefore described was evidenced by means of the carrageenin tests in rats. This test is carried out in the hind paw of the rat which paw has been inflammed by injection of carrageenin according to the technique described by C.A. Winter and coworker, Proc. Soc. Exptl. Biol. Med. III, 554 (1962). In following Table I are reported the percent inhibition of the carrageenin induced edema at the dose level indicated for each compound.

## c1ccc2c(c1)Cn1nc(-c3ccc4c(c3)OCO4)nc1-2 [2-(3,4-Methylenedioxyphenyl)-5H-s-triazolo[5,1-a]isoindole]
[1]; 1 mg/kg/day s.c.
  % Animals Aborting: 0%
[1]; 1.25 mg/kg/day s.c.
  % Animals Aborting: 25%
[1]; 2.5 mg/kg/day s.c.
  % Animals Aborting: 66.7%
[1]; 5 mg/kg/day s.c.
  % Animals Aborting: 100%
[2]
  responders at 5 mg/kg: ≥ 60%

## c1cncc(-c2nc3n(n2)Cc2ccccc2-3)c1 [2-(3-pyridyl)-5H-s-triazolo[5,1-aisoindole]
[3]
  increase of the pain threshold of the rats: 70%
  toxic effect: without provoking any toxic effect

## c1ccc(COc2cccc(-c3nc4n(n3)Cc3ccccc3-4)c2)cc1 [2-(m-Benzyloxyphenyl)-5H-s-triazolo[5,1-a]isoindole]
[2]
  responders at 5 mg/kg: ≥ 60%

## Clc1cccc(-c2nc3n(n2)Cc2ccccc2-3)c1 [2-(m-Chlorophenyl)-5H-s-triazolo[5,1-a]isoindole]
[2]
  responders at 5 mg/kg: ≥ 60%

## CN(C)c1cccc(-c2nc3n(n2)Cc2ccccc2-3)c1 [2-(m-Dimethylaminophenyl)-5H-s-triazolo[5,1-a]isoindole]
[2]
  responders at 5 mg/kg: ≥ 60%

## CCOc1cccc(-c2nc3n(n2)Cc2ccccc2-3)c1 [2-(m-Ethoxyphenyl)-5H-s-triazolo[5,1-a]isoindole]
[1]; 1 mg/kg/day s.c.
  % Animals Aborting: 33.3%
[1]; 1.25 mg/kg/day s.c.
  % Animals Aborting: 62.5%
[1]; 2.5 mg/kg/day s.c.
  % Animals Aborting: 85.7%
[1]; 5 mg/kg/day s.c.
  % Animals Aborting: 100%
[2]
  responders at 5 mg/kg: ≥ 60%

## Fc1cccc(-c2nc3n(n2)Cc2ccccc2-3)c1 [2-(m-Fluorophenyl)-5H-s-triazolo[5,1-a]isoindole]
[2]
  responders at 5 mg/kg: ≥ 60%

## Oc1cccc(-c2nc3n(n2)Cc2ccccc2-3)c1 [2-(m-Hydroxyphenyl)-5H-s-triazolo[5,1-a]isoindole]
[2]
  responders at 5 mg/kg: ≥ 60%

## COc1cccc(-c2nc3n(n2)Cc2ccccc2-3)c1 [2-(m-Methoxyphenyl)-5H-s-triazolo[5,1-a]isoindole]
[1]; 0.155 mg/kg/day s.c.
  % Animals Aborting: 0%
[1]; 0.31 mg/kg/day s.c.
  % Animals Aborting: 0%
[1]; 0.62 mg/kg/day s.c.
  % Animals Aborting: 38.5%
[1]; 1.25 mg/kg/day s.c.
  % Animals Aborting: 70.8%
[1]; 2.5 mg/kg/day s.c.
  % Animals Aborting: 100%
[1]; 5 mg/kg/day s.c.
  % Animals Aborting: 100%
baboons
  induced abortion: induced abortion in every animal studied
[2]
  responders at 5 mg/kg: ≥ 60%

## CCCOc1cccc(-c2nc3n(n2)Cc2ccccc2-3)c1 [2-(m-Propoxyphenyl)-5H-s-triazolo[5,1-a]isoindole]
[1]; 1 mg/kg/day s.c.
  % Animals Aborting: 20%
[1]; 1.25 mg/kg/day s.c.
  % Animals Aborting: 60%
[1]; 2.5 mg/kg/day s.c.
  % Animals Aborting: 77.8%
[1]; 5 mg/kg/day s.c.
  % Animals Aborting: 100%
[2]
  responders at 5 mg/kg: ≥ 60%

## Cc1cccc(-c2nc3n(n2)Cc2ccccc2-3)c1 [2-(m-Tolyl)-5H-s-triazolo[5,1-a]isoindole]
[2]
  responders at 5 mg/kg: ≥ 60%

## FC(F)(F)c1cccc(-c2nc3n(n2)Cc2ccccc2-3)c1 [2-(m-Trifluoromethylphenyl)-5H-s-triazolo[5,1-a]isoindole]
[2]
  responders at 5 mg/kg: ≥ 60%

## Clc1ccc(-c2nc3n(n2)Cc2ccccc2-3)cc1 [2-(p-Chlorophenyl)-5H-s-triazolo[5,1-a]isoindole]
[2]
  responders at 5 mg/kg: ≥ 60%

## Fc1ccc(-c2nc3n(n2)Cc2ccccc2-3)cc1 [2-(p-Fluorophenyl)-5H-s-triazolo[5,1-a]isoindole]
[2]
  responders at 5 mg/kg: ≥ 60%

## COc1ccc(-c2nc3n(n2)Cc2ccccc2-3)cc1 [2-(p-Methoxyphenyl)-5H-s-triazolo[5,1-a]isoindole]
[2]
  responders at 5 mg/kg: ≥ 60%

## Cc1ccc(-c2nc3n(n2)Cc2ccccc2-3)cc1 [2-(p-Tolyl)-5H-s-triazolo[5,1-a]isoindole]
[2]
  responders at 5 mg/kg: ≥ 60%

## Nc1nc2n(n1)Cc1ccccc1-2 [2-Amino-5H-s-triazolo[5,1-a]isoindole]
Conditioned rats; 30 mg/kg i.p.
  Deconditioned / treated: 8/10
[4]
  LD50: 600 mg/kg

## Cc1nc2n(n1)Cc1ccccc1-2 [2-Methyl-5H-s-triazolo[5,1-a]isoindole]
Conditioned rats; 15 mg/kg i.p.
  Deconditioned / treated: 6/10
Conditioned rats; 30 mg/kg i.p.
  Deconditioned / treated: 7/10
[4]
  LD50: > 400 mg/kg

## c1ccc(-c2nc3n(n2)Cc2ccccc2-3)cc1 [2-Phenyl-5H-s-triazolo[5,1-a]isoindole]
[1]; 1.25 mg/kg/day s.c.
  % Animals Aborting: 20%
[1]; 2.5 mg/kg/day s.c.
  % Animals Aborting: 80%
[2]
  responders at 5 mg/kg: ≥ 60%

## CCOC(=O)NC(=S)Nc1nc2n(n1)Cc1ccccc1-2 [2-carbethoxythioureido-5H-s-triazolo[5,1-a]isoindole]
[5]
  MIC: 5 mg/L (≈ 16.5 µM)

## COc1cccc(-c2nc3n(n2)Cc2cc(OC)c(OC)cc2-3)c1 [7,8-Dimethoxy-2-(m-methoxyphenyl)-5H-s-triazolo[5,1-a]isoindole]
[2]
  responders at 5 mg/kg: ≥ 60%

## COc1cccc(-c2nc3n(n2)Cc2cc(Cl)ccc2-3)c1 [7-Chloro-2-(m-methoxyphenyl)-5H-s-triazolo[5,1-a]isoindole]
[2]
  responders at 5 mg/kg: ≥ 60%

## Clc1ccc2c(c1)Cn1nc(-c3ccccc3)nc1-2 [7-Chloro-2-phenyl-5H-s-triazolo[5,1-a]isoindole]
[2]
  responders at 5 mg/kg: ≥ 60%

## COc1cccc(-c2nc3n(n2)Cc2cc(OC)ccc2-3)c1 [7-Methoxy-2-(m-methoxyphenyl)-5H-s-triazolo[5,1-a]isoindole]
[2]
  responders at 5 mg/kg: ≥ 60%

## COc1cccc(-c2nc3n(n2)Cc2ccc(Cl)cc2-3)c1 [8-Chloro-2-(m-methoxyphenyl)-5H-s-triazolo[5,1-a]isoindole]
[2]
  responders at 5 mg/kg: ≥ 60%

## Clc1ccc2c(c1)-c1nc(-c3ccccc3)nn1C2 [8-Chloro-2-phenyl-5H-s-triazolo[5,1-a]isoindole]
[2]
  responders at 5 mg/kg: ≥ 60%

## COc1cccc(-c2nc3n(n2)Cc2ccc(OC)cc2-3)c1 [8-Methoxy-2-(m-methoxyphenyl)-5H-s-triazolo[5,1-a]isoindole]
[1]; 2.5 mg/kg/day s.c.
  % Animals Aborting: 57.1%
[1]; 5 mg/kg/day s.c.
  % Animals Aborting: 100%
[2]
  responders at 5 mg/kg: ≥ 60%

## COc1ccc2c(c1)-c1nc(-c3ccccc3)nn1C2 [8-Methoxy-2-phenyl-5H-s-triazolo[5,1-a]isoindole]
[2]
  responders at 5 mg/kg: ≥ 60%

## CCCCc1nc2n(n1)Cc1ccccc1-2 [a, 2-n-butyl-5H-s-triazolo[5,1-a]isoindole]
[6]; 100 mg/Kg p.o.
  Per Cent Inhibition of the Edema: 28 Per Cent

## CC(=O)Nc1nc2n(n1)Cc1ccccc1-2 [c, 2-acetamido-5H-s-triazolo[5,1-a]isoindole]
[6]; 50 mg/Kg p.o.
  Per Cent Inhibition of the Edema: 35 Per Cent
[6]; 100 mg/Kg p.o.
  Per Cent Inhibition of the Edema: 54 Per Cent

## CC(=O)N(C(C)=O)c1nc2n(n1)Cc1ccccc1-2 [d, 2-diacetylamino-5H-s-triazolo[5,1-a]isoindole]
[6]; 50 mg/Kg p.o.
  Per Cent Inhibition of the Edema: 34 Per Cent
[6]; 100 mg/Kg p.o.
  Per Cent Inhibition of the Edema: 53 Per Cent

## NC(=O)Nc1nc2n(n1)Cc1ccccc1-2 [e, 2-ureido-5H-s-triazolo[5,1-a]isoindole]
[6]; 100 mg/Kg p.o.
  Per Cent Inhibition of the Edema: 29 Per Cent

## O=C(Nc1nc2n(n1)Cc1ccccc1-2)c1ccccc1 [f, 2-benzoylamino-5H-s-triazolo[5,1-a]isoindole]
[6]; 100 mg/Kg p.o.
  Per Cent Inhibition of the Edema: 28 Per Cent

## Sc1nc2n(n1)Cc1ccccc1-2 [g, 2-sulfhydryl-5H-s-triazolo[5,1-a]isoindole]
[6]; 50 mg/Kg p.o.
  Per Cent Inhibition of the Edema: 39 Per Cent
[6]; 100 mg/Kg p.o.
  Per Cent Inhibition of the Edema: 49 Per Cent
